From US4315027A, “Pesticidal symmetrical and asymmetrical sulfinyldicarbamates containing a heterocyclic group” (priority 1980, dated 1982)

The compounds below were run on mosquito larvae, Culex pipiens (assay: Larvicidal activity against mosquito larvae in water). Settings: 1 ml acetone solution in 100 ml water, 3rd instar larvae.
Assay type: in vivo
Procedure: Representative compounds of the N,N'-sulfinyldicarbamate esters of the invention were tested for insecticidal activity against two insect species, house flies, Musca domestica, and mosquito larvae, Culex pipiens. Stock 1% concentrated solutions of each of the test compounds were made in acetone, and such solutions diluted with acetone to a concentration of 0.001-0.1%. House flies were treated topically on the notum by 1 μl of each of the diluted acetone solutions and percent mortality was counted 24 hours after application. Insects were held at a constant temperature of 60° F. Larvicidal activity was determined by applying 1 ml of the acetone solution in 100 ml of water containing 20 3rd instar mosquito larvae. Results are presented as LD50 in μg/g for house flies and LC50 in ppm for mosquito larvae.

Row | Structure (SMILES) | Culex LC50 [ppm]
1 | CCCOC(=O)N(C)[S+]([O-])N(C)C(=O)Oc1ccccc1OC(C)C (stereo not drawn) [XI, 2-isopropoxyphenyl N-[N'-(n-propoxycarbonyl)-N'-(methylaminosulfinyl)]-N-methylcarbamate] | 0.18
2 | CCCCCCCOC(=O)N(C)[S+]([O-])N(C)C(=O)Oc1cccc2c1OC(C)(C)C2 (stereo not drawn) [X, 2,3-dihydro-2,2-dimethylbenzofuranyl-7 N-[N'-(n-heptoxycarbonyl)-N'-(methylaminosulfinyl)]-N-methylcarbamate] | 0.015
3 | CCOC(=O)N(C)[S+]([O-])N(C)C(=O)Oc1cccc2c1OC(C)(C)C2 (stereo not drawn) [VIII, 2,3-dihydro-2,2-dimethylbenzofuranyl-7 N-[N'-(ethoxycarbonyl)-N'-(methylaminosulfinyl)]-N-methylcarbamate] | 0.04
